Source: ChEMBL document CHEMBL1649369, “Novel 4-aryl-pyrido[1,2-c]pyrimidines with dual SSRI and 5-HT(1A) activity. part 3” (Eur J Med Chem, 2011)

Each molecule was assayed against T1, 5-hydroxytryptamine receptor 1A (Rattus norvegicus, UniProt P19327) (assay: Displacement of [3H]8-OH-DPAT from 5-HT1A receptor in rat hippocampus).
T1 sequence (P19327 whole entry): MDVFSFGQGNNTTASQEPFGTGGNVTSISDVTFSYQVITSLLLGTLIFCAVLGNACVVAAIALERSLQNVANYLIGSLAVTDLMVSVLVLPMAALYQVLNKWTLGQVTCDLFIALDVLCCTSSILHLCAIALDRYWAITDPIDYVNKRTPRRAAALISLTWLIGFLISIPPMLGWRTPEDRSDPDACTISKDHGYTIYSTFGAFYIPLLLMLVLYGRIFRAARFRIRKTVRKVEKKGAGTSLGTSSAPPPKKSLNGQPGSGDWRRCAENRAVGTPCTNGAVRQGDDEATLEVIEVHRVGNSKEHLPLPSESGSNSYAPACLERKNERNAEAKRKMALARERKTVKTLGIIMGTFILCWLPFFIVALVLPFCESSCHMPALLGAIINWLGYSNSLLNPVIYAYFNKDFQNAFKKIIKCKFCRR
Format: tissue-based

Row | Structure (SMILES) | Ki
1 | Cc1ccc(-c2c3n(c(=O)n(CCCCN4CCC(c5c(C)[nH]c6ccccc56)CC4)c2=O)CCCC3)cc1 | 279 nM
2 | O=c1c(-c2ccccc2F)c2n(c(=O)n1CCCCN1CCC(c3c[nH]c4ccccc34)CC1)CCCC2 | 41.3 nM
3 | Cc1[nH]c2ccccc2c1C1CCN(CCCCn2c(=O)c(-c3ccc(F)cc3)c3n(c2=O)CCCC3)CC1 | 114 nM
4 | O=c1c(-c2ccccc2Cl)c2n(c(=O)n1CCCCN1CCC(c3c[nH]c4ccccc34)CC1)CCCC2 | 62.3 nM

These molecules were tested against Sodium-dependent serotonin transporter (Rattus norvegicus, UniProt P31652) (assay: Displacement of [3H]citalopram from SERT in rat cerebral cortex by liquid scintillation counting).
Format: tissue-based

Chain of Sodium-dependent serotonin transporter (P31652 whole entry): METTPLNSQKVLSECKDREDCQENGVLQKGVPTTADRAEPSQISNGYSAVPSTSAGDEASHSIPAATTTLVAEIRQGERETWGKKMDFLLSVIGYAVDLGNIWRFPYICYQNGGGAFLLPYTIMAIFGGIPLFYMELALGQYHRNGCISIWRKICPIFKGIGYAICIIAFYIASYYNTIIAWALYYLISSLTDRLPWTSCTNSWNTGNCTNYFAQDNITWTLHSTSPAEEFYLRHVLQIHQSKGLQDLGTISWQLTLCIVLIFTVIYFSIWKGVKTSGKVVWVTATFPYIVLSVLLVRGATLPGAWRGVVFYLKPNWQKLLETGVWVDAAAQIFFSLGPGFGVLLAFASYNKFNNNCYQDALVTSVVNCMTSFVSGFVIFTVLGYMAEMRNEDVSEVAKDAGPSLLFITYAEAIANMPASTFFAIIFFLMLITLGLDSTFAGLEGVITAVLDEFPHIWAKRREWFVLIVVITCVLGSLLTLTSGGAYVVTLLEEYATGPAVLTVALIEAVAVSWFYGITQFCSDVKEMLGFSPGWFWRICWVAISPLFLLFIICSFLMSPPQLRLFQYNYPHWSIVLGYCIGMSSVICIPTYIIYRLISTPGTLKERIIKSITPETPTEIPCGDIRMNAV

Row | Structure (SMILES) | Ki
5 | Cc1ccc(-c2c3n(c(=O)n(CCCCN4CCC(c5c(C)[nH]c6ccccc56)CC4)c2=O)CCCC3)cc1 | 1800 nM
6 | O=c1c(-c2ccccc2F)c2n(c(=O)n1CCCCN1CCC(c3c[nH]c4ccccc34)CC1)CCCC2 | 68.4 nM
7 | Cc1[nH]c2ccccc2c1C1CCN(CCCCn2c(=O)c(-c3ccc(F)cc3)c3n(c2=O)CCCC3)CC1 | 147 nM
8 | O=c1c(-c2ccccc2Cl)c2n(c(=O)n1CCCCN1CCC(c3c[nH]c4ccccc34)CC1)CCCC2 | 147 nM

These molecules were tested on Mus musculus (assay: Effect on hypothermia in Swiss albino mouse assessed as change in rectal body temperature at 5 mg/kg, ip after 30 mins by inducible hypothermia test).
Format: functional, organism-based
Set-up: dose 5 mg/kg

Row | Structure (SMILES) | deltaT
9 | O=c1c(-c2ccccc2F)c2n(c(=O)n1CCCCN1CCC(c3c[nH]c4ccccc34)CC1)CCCC2 | -1.3 °C
10 | O=c1c(-c2ccccc2Cl)c2n(c(=O)n1CCCCN1CCC(c3c[nH]c4ccccc34)CC1)CCCC2 | -0.5 °C

The molecules below were run on Mus musculus (assay: Effect on hypothermia in Swiss albino mouse assessed as change in rectal body temperature at 5 mg/kg, ip after 60 mins by inducible hypothermia test).
Format: functional, organism-based
Set-up: dose 5 mg/kg

Row | Structure (SMILES) | deltaT
11 | O=c1c(-c2ccccc2F)c2n(c(=O)n1CCCCN1CCC(c3c[nH]c4ccccc34)CC1)CCCC2 | -0.8 °C
12 | O=c1c(-c2ccccc2Cl)c2n(c(=O)n1CCCCN1CCC(c3c[nH]c4ccccc34)CC1)CCCC2 | -0.2 °C

Each molecule was assayed on Mus musculus (assay: Effect on hypothermia in Swiss albino mouse assessed as change in rectal body temperature at 5 mg/kg, ip after 90 mins by inducible hypothermia test).
Format: functional, organism-based
Set-up: dose 5 mg/kg

Row | Structure (SMILES) | deltaT
13 | O=c1c(-c2ccccc2F)c2n(c(=O)n1CCCCN1CCC(c3c[nH]c4ccccc34)CC1)CCCC2 | -0.5 °C
14 | O=c1c(-c2ccccc2Cl)c2n(c(=O)n1CCCCN1CCC(c3c[nH]c4ccccc34)CC1)CCCC2 | -0.2 °C

What follows are molecules tested on Mus musculus (assay: Effect on hypothermia in Swiss albino mouse assessed as change in rectal body temperature at 5 mg/kg, ip after 120 mins by inducible hypothermia test).
Format: functional, organism-based
Set-up: dose 5 mg/kg

Row | Structure (SMILES) | deltaT
15 | O=c1c(-c2ccccc2F)c2n(c(=O)n1CCCCN1CCC(c3c[nH]c4ccccc34)CC1)CCCC2 | -0.3 °C
16 | O=c1c(-c2ccccc2Cl)c2n(c(=O)n1CCCCN1CCC(c3c[nH]c4ccccc34)CC1)CCCC2 | -0.1 °C

The molecules below were run on Mus musculus (assay: Effect on hypothermia in Swiss albino mouse assessed as change in rectal body temperature at 10 mg/kg, ip after 30 mins by inducible hypothermia test).
Format: functional, organism-based
Set-up: dose 10 mg/kg

Row | Structure (SMILES) | deltaT
17 | O=c1c(-c2ccccc2Cl)c2n(c(=O)n1CCCCN1CCC(c3c[nH]c4ccccc34)CC1)CCCC2 | -0.7 °C

What follows are molecules tested on Mus musculus (assay: Effect on hypothermia in Swiss albino mouse assessed as change in rectal body temperature at 10 mg/kg, ip after 60 mins by inducible hypothermia test).
Format: functional, organism-based
Set-up: dose 10 mg/kg

Row | Structure (SMILES) | deltaT
18 | O=c1c(-c2ccccc2Cl)c2n(c(=O)n1CCCCN1CCC(c3c[nH]c4ccccc34)CC1)CCCC2 | -0.2 °C

What follows are molecules tested on Mus musculus (assay: Effect on hypothermia in Swiss albino mouse assessed as change in rectal body temperature at 10 mg/kg, ip after 90 mins by inducible hypothermia test).
Format: functional, organism-based
Set-up: dose 10 mg/kg

Row | Structure (SMILES) | deltaT
19 | O=c1c(-c2ccccc2Cl)c2n(c(=O)n1CCCCN1CCC(c3c[nH]c4ccccc34)CC1)CCCC2 | -0.1 °C

What follows are molecules tested on Mus musculus (assay: Effect on hypothermia in Swiss albino mouse assessed as change in rectal body temperature at 10 mg/kg, ip after 120 mins by inducible hypothermia test).
Format: functional, organism-based
Set-up: dose 10 mg/kg

Row | Structure (SMILES) | deltaT
20 | O=c1c(-c2ccccc2Cl)c2n(c(=O)n1CCCCN1CCC(c3c[nH]c4ccccc34)CC1)CCCC2 | 0 °C

The molecules below were run on Mus musculus (assay: Effect on hypothermia in Swiss albino mouse assessed as change in rectal body temperature at 2.5 mg/kg, ip after 30 mins by inducible hypothermia test).
Format: functional, organism-based
Set-up: dose 2.5 mg/kg

Row | Structure (SMILES) | deltaT
21 | O=c1c(-c2ccccc2F)c2n(c(=O)n1CCCCN1CCC(c3c[nH]c4ccccc34)CC1)CCCC2 | -0.5 °C

These molecules were tested on Mus musculus (assay: Effect on hypothermia in Swiss albino mouse assessed as change in rectal body temperature at 2.5 mg/kg, ip after 60 mins by inducible hypothermia test).
Format: functional, organism-based
Set-up: dose 2.5 mg/kg

Row | Structure (SMILES) | deltaT
22 | O=c1c(-c2ccccc2F)c2n(c(=O)n1CCCCN1CCC(c3c[nH]c4ccccc34)CC1)CCCC2 | -0.2 °C

These molecules were tested on Mus musculus (assay: Effect on hypothermia in Swiss albino mouse assessed as change in rectal body temperature at 2.5 mg/kg, ip after 90 mins by inducible hypothermia test).
Format: functional, organism-based
Set-up: dose 2.5 mg/kg

Row | Structure (SMILES) | deltaT
23 | O=c1c(-c2ccccc2F)c2n(c(=O)n1CCCCN1CCC(c3c[nH]c4ccccc34)CC1)CCCC2 | -0.1 °C

Each molecule was assayed on Mus musculus (assay: Effect on hypothermia in Swiss albino mouse assessed as change in rectal body temperature at 2.5 mg/kg, ip after 120 mins by inducible hypothermia test).
Format: functional, organism-based
Set-up: dose 2.5 mg/kg

Row | Structure (SMILES) | deltaT
24 | O=c1c(-c2ccccc2F)c2n(c(=O)n1CCCCN1CCC(c3c[nH]c4ccccc34)CC1)CCCC2 | -0.1 °C

What follows are molecules tested on Mus musculus (assay: Effect on hypothermia in Swiss albino mouse assessed as change in rectal body temperature at 20 mg/kg, ip after 30 mins by inducible hypothermia test).
Format: functional, organism-based
Set-up: dose 20 mg/kg

Row | Structure (SMILES) | deltaT
25 | O=c1c(-c2ccccc2Cl)c2n(c(=O)n1CCCCN1CCC(c3c[nH]c4ccccc34)CC1)CCCC2 | -1 °C

The molecules below were run on Mus musculus (assay: Effect on hypothermia in Swiss albino mouse assessed as change in rectal body temperature at 20 mg/kg, ip after 60 mins by inducible hypothermia test).
Format: functional, organism-based
Set-up: dose 20 mg/kg

Row | Structure (SMILES) | deltaT
26 | O=c1c(-c2ccccc2Cl)c2n(c(=O)n1CCCCN1CCC(c3c[nH]c4ccccc34)CC1)CCCC2 | -0.6 °C

These molecules were tested on Mus musculus (assay: Effect on hypothermia in Swiss albino mouse assessed as change in rectal body temperature at 20 mg/kg, ip after 90 mins by inducible hypothermia test).
Format: functional, organism-based
Set-up: dose 20 mg/kg

Row | Structure (SMILES) | deltaT
27 | O=c1c(-c2ccccc2Cl)c2n(c(=O)n1CCCCN1CCC(c3c[nH]c4ccccc34)CC1)CCCC2 | -0.2 °C

These molecules were tested on Mus musculus (assay: Effect on hypothermia in Swiss albino mouse assessed as change in rectal body temperature at 20 mg/kg, ip after 120 mins by inducible hypothermia test).
Format: functional, organism-based
Set-up: dose 20 mg/kg

Row | Structure (SMILES) | deltaT
28 | O=c1c(-c2ccccc2Cl)c2n(c(=O)n1CCCCN1CCC(c3c[nH]c4ccccc34)CC1)CCCC2 | -0.1 °C

Each molecule was assayed on Mus musculus (assay: Effect on hypothermia in Swiss albino mouse assessed as change in rectal body temperature at 5 mg/kg, ip dosed 15 mins after 0.1 mg/kg, sc WAY 100635 challenge measured after 30 mins by inducible hypothermia test).
Format: functional, organism-based

Row | Structure (SMILES) | deltaT
29 | O=c1c(-c2ccccc2F)c2n(c(=O)n1CCCCN1CCC(c3c[nH]c4ccccc34)CC1)CCCC2 | -0.2 °C

Each molecule was assayed on Mus musculus (assay: Effect on hypothermia in Swiss albino mouse assessed as change in rectal body temperature at 5 mg/kg, ip dosed 15 mins after 0.1 mg/kg, sc WAY 100635 challenge measured after 60 mins by inducible hypothermia test).
Format: functional, organism-based

Row | Structure (SMILES) | deltaT
30 | O=c1c(-c2ccccc2F)c2n(c(=O)n1CCCCN1CCC(c3c[nH]c4ccccc34)CC1)CCCC2 | -0.1 °C
